The values that follow come from ChEMBL document CHEMBL1130376, “Effects of taxoids from Taxus cuspidata on microtubule depolymerization and vincristine accumulation in MDR cells” (Bioorg Med Chem Lett, 1997).

One may read the IC50 as the point on the concentration scale where inhibition reaches its midpoint.

A short description of experiment [1]: Cytotoxicity against human epidermoid carcinoma KB cells. The experiment is classed as functional, cell-based.
A short description of experiment [2]: Vincristine (VCR) accumulation in multidrug resistant human ovarian cancer 2780 AD cells at a concentration 1 ug/mL. The experiment is classed as functional.
The test system of a further experiment is L1210. In words: Cytotoxicity against murine leukemia L1210 cells. The experiment is classed as functional, cell-based, Mus musculus.
Experiment [3] is described as follows: Vincristine (VCR) accumulation in multidrug resistant human ovarian cancer 2780 AD cells at a concentration 10 ug/mL. The experiment is classed as functional.
Where [4] appears, read: Mus musculus, L1210, read-out: IC50.

Values after ≈ are worked out from the molar mass of the structure shown. Bounds are passed on as bounds.

As for `C=C1[C@@H](O)C[C@H](OC(C)=O)[C@@]2(COC(C)=O)[C@@H](OC(C)=O)[C@H](OC(C)=O)[C@]3(O)[C@@]4(C)CO[C@]3(C)C(=O)C[C@H]4[C@@H](OC(C)=O)[C@H]12`, the IC50 (in experiment [1]; with L1210 (setting [4])) was > 10 µg/mL in each case. In addition, the “vincristine accumulation (% of control)” value amounted to 142% in experiment [2] and 198% in experiment [3].
In the case of `COc1ccc(CCN(C)CCCC(C#N)(c2ccc(OC)c(OC)c2)C(C)C)cc1OC` (configuration not stated) [VERAPAMIL], the “vincristine accumulation (% of control)” value was determined as 254% in experiment [2] and 739% in experiment [3].
In the case of `CC(=O)O[C@@]12CO[C@@H]1C[C@H](O)[C@@]1(C)C(=O)[C@H](O)C3=C(C)[C@@H](OC(=O)[C@H](O)C(NC(=O)c4ccccc4)c4ccccc4)C[C@@](O)([C@@H](OC(=O)c4ccccc4)[C@H]21)C3(C)C` (some centres not stated), the concentration for half-maximal inhibition (IC50) in experiment [1] was determined as 0.015 µg/mL (≈ 0.0185 µM); with L1210 (setting [4]), 0.88 µg/mL (≈ 1.08 µM).
As for `CC(=O)O[C@@]12CO[C@@H]1C[C@H](O)[C@@]1(C)C(=O)[C@H](O)C3=C(C)[C@@H](OC(=O)[C@H](O)C(NC(=O)C4CCC4)c4ccccc4)C[C@@](O)([C@@H](OC(=O)c4ccccc4)[C@H]21)C3(C)C` (some centres not stated), the concentration for half-maximal inhibition (IC50) in experiment [1] came to 0.0048 µg/mL (≈ 0.00608 µM); in the experiment with L1210 (setting [4]), 0.95 µg/mL (≈ 1.2 µM).
Regarding `CC(=O)O[C@H]1C(=O)[C@@]2(C)[C@H]([C@H](OC(=O)c3ccccc3)[C@]3(O)C[C@H](OC(=O)[C@H](O)[C@@H](NC(=O)c4ccccc4)c4ccccc4)C(C)=C1C3(C)C)[C@]1(OC(C)=O)CO[C@@H]1C[C@@H]2O` [PACLITAXEL], the “vincristine accumulation (% of control)” value in experiment [2] is recorded as 83%; in experiment [3], 56%.
With `CC(=O)O[C@H]1C[C@@H]2OC[C@@]2(OC(C)=O)[C@H]2[C@H](OC(=O)c3ccccc3)[C@]3(O)C[C@H](O)C(C)=C([C@@H](O)[C@H](O)[C@]12C)C3(C)C`, the IC50 was determined as 0.08 µg/mL (≈ 0.136 µM) in experiment [1] and 0.27 µg/mL (≈ 0.459 µM) in the experiment with L1210 (setting [4]).
`C=C1[C@@H](OC(C)=O)CC[C@@]2(C)[C@@H](OC(C)=O)[C@H](OC(C)=O)C3=C(C)[C@@H](OC(C)=O)C[C@@H]([C@@H](OC(C)=O)[C@H]12)C3(C)C`: the 50% inhibitory concentration (IC50) (in experiment [1]; with L1210 (setting [4])) was > 10 µg/mL in each case.
For the compound `CCCCCC(=O)NC(c1ccccc1)[C@@H](O)C(=O)O[C@H]1C[C@@]2(O)[C@@H](OC(=O)c3ccccc3)[C@@H]3[C@]4(OC(C)=O)CO[C@@H]4C[C@H](O)[C@@]3(C)C(=O)[C@H](OC(C)=O)C(=C1C)C2(C)C` (some centres not stated), the IC50 in experiment [1] worked out at 0.0053 µg/mL (≈ 0.00625 µM); with L1210 (setting [4]), 0.21 µg/mL (≈ 0.248 µM).
Regarding `CC(=O)O[C@H]1C(=O)[C@@]2(C)[C@H]([C@H](OC(=O)c3ccccc3)[C@]3(O)C[C@H](OC(=O)[C@H](O)[C@@H](NC(=O)c4ccccc4)c4ccccc4)C(C)=C1C3(C)C)[C@]1(OC(C)=O)CO[C@@H]1C[C@@H]2O` (mixture of isomers) [PACLITAXEL], the figures for the “vincristine accumulation (% of control)” value in experiment [2] and in experiment [3] were 132% and 138%, respectively. Further, the IC50 in the experiment with L1210 (l1210) is 0.026 µg/mL.
Consider `CCCCCC(=O)NC(c1ccccc1)[C@@H](O)C(=O)O[C@H]1C[C@@]2(O)[C@@H](OC(=O)c3ccccc3)[C@@H]3[C@]4(OC(C)=O)CO[C@@H]4C[C@H](O)[C@@]3(C)C(=O)[C@H](O)C(=C1C)C2(C)C` (some centres not stated), for which the IC50 was found to be 0.0017 µg/mL (≈ 0.00211 µM) in experiment [1] and 0.24 µg/mL (≈ 0.298 µM) in the experiment on L1210 (setting [4]).
As for `CC(=O)O[C@H]1C[C@@H]2OC[C@@]2(OC(C)=O)[C@H]2[C@H](OC(C)=O)[C@]3(O)C[C@H](OC(=O)CC(c4ccccc4)N(C)C)C(C)=C([C@@H](OC(=O)c4ccccc4)[C@H](OC(C)=O)[C@]12C)C3(C)C` (some centres not stated), the IC50 is > 10 µg/mL in experiment [1] and 7.8 µg/mL (≈ 9.2 µM) in the experiment with L1210 (setting [4]).
`CCCC(=O)NC(c1ccccc1)[C@@H](O)C(=O)O[C@H]1C[C@@]2(O)[C@@H](OC(=O)c3ccccc3)[C@@H]3[C@]4(OC(C)=O)CO[C@@H]4C[C@H](O)[C@@]3(C)C(=O)[C@H](OC(C)=O)C(=C1C)C2(C)C` (some centres not stated): the IC50 is 0.016 µg/mL (≈ 0.0195 µM) in experiment [1] and 0.21 µg/mL (≈ 0.256 µM) with L1210 (setting [4]).
